Earlier results in the PKSmart pharmacokinetics tables (Seal et al. 2025).

How the values were obtained:
[1] = Lombardo et al. 2013, J Clin Pharmacol 53:178, doi 10.1177/0091270012440282; conditions: for Vd / clearance: in vivo, iv; for fraction unbound: plasma
[2] = Lombardo, Berellini, Obach 2018, Drug Metab Dispos 46:1466, doi 10.1124/dmd.118.082966; conditions: human; for MRT / Vd / half-life / clearance: in vivo, iv; for fraction unbound: plasma

Structure (SMILES)	Vd ([1]; dog)	clearance ([1]; dog)	Vd ([1]; monkey)	clearance ([1]; monkey)	Vd ([1]; rat)	clearance ([1]; rat)	MRT [2]	Vd [2]	half-life [2]	clearance [2]	fraction unbound ([1]; dog)	fraction unbound ([1]; monkey)	fraction unbound ([1]; rat)	fraction unbound [2]
CC(C)(C)NC(=O)C1CN(Cc2cccnc2)CCN1C[C@@H](O)CC(Cc1ccccc1)C(=O)N[C@H]1c2ccccc2C[C@H]1O (stereo partly drawn)	0.73 L/kg	15 mL/min/kg	1.45 L/kg	35.7 mL/min/kg	2.2 L/kg	89 mL/min/kg	0.76 h	0.82 L/kg	1 h	–	–	–	–	–
Nc1ncn([C@H]2C[C@H](O)[C@@H](CO)O2)c(=O)n1	0.85 L/kg	8.6 mL/min/kg	–	–	1.8 L/kg	7.9 mL/min/kg	0.59 h	4.6 L/kg	0.58 h	130 mL/min/kg	–	–	–	–
Oc1ccc2c3c1O[C@H]1[C@@H](O)CC[C@@]4(O)[C@@H](C2)N(CC2CCC2)CC[C@]314	–	–	–	–	11 L/kg	111 mL/min/kg	3.5 h	4.6 L/kg	3.7 h	22 mL/min/kg	–	–	–	–
CON=C(C(=O)NC1C(=O)N2C(C(=O)O)=CCS[C@H]12)c1csc(N)n1 (stereo partly drawn)	0.27 L/kg	3.25 mL/min/kg	0.29 L/kg	5.93 mL/min/kg	0.54 L/kg	19.3 mL/min/kg	1.6 h	0.2 L/kg	1.5 h	2.1 mL/min/kg	0.83	0.662	0.7	0.72
Cc1cccnc1NS(=O)(=O)c1ccc(C#Cc2ccc(O)c(C(=O)O)c2)cc1	0.19 L/kg	20 mL/min/kg	0.08 L/kg	1.9 mL/min/kg	1.2 L/kg	62 mL/min/kg	23.8 h	0.1 L/kg	16 h	0.07 mL/min/kg	0.01	0.003	0.0033	0.0019
COC(=O)C1=C(C)NC(C)=C(C(=O)OCC(C)C)C1c1ccccc1[N+](=O)[O-] (stereo not drawn)	4.1 L/kg	37.2 mL/min/kg	–	–	0.89 L/kg	45.8 mL/min/kg	6.5 h	5.5 L/kg	11 h	15 mL/min/kg	0.028	–	–	–
CC(C)(C)NCC(O)c1cc(O)cc(O)c1 (stereo not drawn)	–	–	–	–	3.3 L/kg	60 mL/min/kg	7.4 h	1.5 L/kg	15 h	3.4 mL/min/kg	–	–	–	–
CC(=O)[C@]1(O)Cc2c(O)c3c(c(O)c2[C@@H](O[C@H]2C[C@H](N)[C@H](O)[C@H](C)O2)C1)C(=O)c1ccccc1C3=O	34.5 L/kg	–	–	–	36.5 L/kg	78.5 mL/min/kg	26 h	38 L/kg	16 h	24 mL/min/kg	–	–	–	0.076
O=c1c(O)c(-c2ccc(O)c(O)c2)oc2cc(O)cc(O)c12	–	–	–	–	0.28 L/kg	116 mL/min/kg	0.2 h	0.12 L/kg	0.6 h	11 mL/min/kg	–	–	–	0.009
O=C(O)c1cc(-c2ccc(F)cc2F)ccc1O	–	–	–	–	0.15 L/kg	1.52 mL/min/kg	14 h	0.097 L/kg	10 h	0.1 mL/min/kg	–	–	–	–
CCOC(=O)C1[C@@H](OC(=O)c2ccccc2)C[C@@H]2CC[C@H]1N2C (stereo partly drawn)	2.68 L/kg	42.2 mL/min/kg	–	–	–	–	2 h	1.6 L/kg	1.5 h	13 mL/min/kg	–	–	–	0.64
CC(c1ncncc1F)[C@](O)(Cn1cncn1)c1ccc(F)cc1F (stereo partly drawn)	0.88 L/kg	–	–	–	1.78 L/kg	–	4.4 h	2.2 L/kg	5.6 h	–	0.49	–	0.44	0.42
CN(Cc1cnc2nc(N)nc(N)c2n1)c1ccc(C(=O)NC(CCC(=O)O)C(=O)O)cc1 (stereo not drawn)	–	–	–	–	–	–	3.4 h	0.43 L/kg	–	2.1 mL/min/kg	–	–	0.68	–
C[C@@H](O)C1C(=O)N2C(C(=O)[O-])=C(SC3Cn4cnc[n+]4C3)[C@H](C)[C@H]12 (stereo partly drawn)	0.21 L/kg	4.7 mL/min/kg	0.25 L/kg	5.5 mL/min/kg	0.19 L/kg	13 mL/min/kg	1.3 h	0.2 L/kg	1.1 h	2.5 mL/min/kg	0.94	–	0.96	0.92
COc1nc(N)nc2c1ncn2[C@@H]1O[C@H](CO)[C@@H](O)[C@@H]1O	–	–	1.3 L/kg	42 mL/min/kg	–	–	1 h	4.9 L/kg	0.5 h	81 mL/min/kg	–	–	–	–
C[C@@H](O)C1C(=O)N2C(C(=O)O)=C(S[C@@H]3CNC(C(=O)N(C)C)C3)[C@H](C)[C@H]12 (stereo partly drawn)	0.22 L/kg	4 mL/min/kg	0.23 L/kg	7.5 mL/min/kg	0.14 L/kg	26.4 mL/min/kg	1.3 h	0.3 L/kg	1 h	3.9 mL/min/kg	0.726	0.666	0.5	0.87
CN[C@@H](C)Cc1ccccc1	–	–	–	–	9 L/kg	126 mL/min/kg	16 h	4.3 L/kg	12 h	4.4 mL/min/kg	–	–	0.92	0.85
C#C[C@]1(O)CC[C@H]2[C@@H]3CCc4cc(OS(=O)(=O)O)ccc4[C@H]3CC[C@@]21C	–	–	21 L/kg	39 mL/min/kg	–	–	8.2 h	2.3 L/kg	8.4 h	4.7 mL/min/kg	–	–	–	0.011
CCCC1O[C@@H]2C[C@H]3[C@@H]4CC=C5CC(=O)C=C[C@]5(C)[C@H]4[C@@H](O)C[C@]3(C)[C@]2(C(=O)CO)O1 (stereo partly drawn)	–	–	–	–	29.2 L/kg	72 mL/min/kg	3.2 h	3.9 L/kg	2.8 h	20 mL/min/kg	–	–	0.039	–
C#C[C@]1(OS(=O)(=O)O)CC[C@H]2[C@@H]3CCc4cc(O)ccc4[C@H]3CC[C@@]21C	–	–	8.7 L/kg	13 mL/min/kg	–	–	7.8 h	0.61 L/kg	9.3 h	1.3 mL/min/kg	–	–	–	–
Cn1c(=O)c2c(ncn2CC(O)CO)n(C)c1=O (stereo not drawn)	–	–	–	–	1.04 L/kg	24.7 mL/min/kg	1.5 h	0.42 L/kg	1.7 h	4.8 mL/min/kg	–	–	–	–
COc1ccc(Cl)cc1[C@]1(F)C(=O)Nc2cc(C(F)(F)F)ccc21	4.06 L/kg	3.5 mL/min/kg	–	–	6.3 L/kg	43 mL/min/kg	11 h	10 L/kg	37 h	15 mL/min/kg	0.0067	–	–	0.0038
c1ccc(C2(N3CCCCC3)CCCCC2)cc1	16.6 L/kg	54.1 mL/min/kg	6.78 L/kg	36.6 mL/min/kg	12.6 L/kg	66.3 mL/min/kg	23 h	6.9 L/kg	16 h	5.1 mL/min/kg	0.43	0.314	0.37	–
COCCCOc1ccnc(C[S+](O)c2nc3ccccc3[n-]2)c1C (stereo not drawn)	2.62 L/kg	86 mL/min/kg	–	–	1.04 L/kg	82.4 mL/min/kg	0.92 h	0.22 L/kg	1 h	4 mL/min/kg	0.0864	–	0.073	–
c1ccc2c(c1)OCC(C1=NCCN1)O2 (stereo not drawn)	–	–	–	–	3.1 L/kg	71.2 mL/min/kg	5.5 h	3.3 L/kg	4.2 h	10 mL/min/kg	–	–	–	–
Nc1ccc(S(=O)(=O)Nc2ncccn2)cc1	–	–	0.5 L/kg	0.64 mL/min/kg	0.34 L/kg	1.1 mL/min/kg	8.8 h	0.29 L/kg	7 h	0.55 mL/min/kg	0.78	0.463	0.86	–
CN(C(=O)c1c(O)c2ccccc2n(C)c1=O)c1ccccc1	–	–	–	–	0.32 L/kg	0.17 mL/min/kg	43 h	0.21 L/kg	31 h	0.082 mL/min/kg	–	–	–	–
O=c1[nH]cc(F)c(=O)[nH]1	–	–	–	–	0.25 L/kg	33 mL/min/kg	–	–	–	–	–	–	0.69	0.64
